Literature values as cited in article doi:10.1101/2023.05.15.540887, “Comparative analysis of drug-like EP300/CREBBP acetyltransferase inhibitors” (bioRxiv, 2023).

Legend:
Set-up in all cases: method as in ref 29 (a number printed in a supplementary file, which may have a reference list of its own: not looked up in the article's list)
COLO205 = settings: Colon COLO205; highest log conc -4.0; NCI-60 screen data; cited from earlier work
UACC-257 = settings: Melanoma UACC-257; highest log conc -4.0; NCI-60 screen data; cited from earlier work
M14 = settings: Melanoma M14; highest log conc -4.0; NCI-60 screen data; cited from earlier work
T-47D = settings: Breast T-47D; highest log conc -4.0; NCI-60 screen data; cited from earlier work
SNB-75 = settings: CNS SNB-75; highest log conc -4.0; NCI-60 screen data; cited from earlier work
EKVX = settings: Non-SmallCellLung EKVX; highest log conc -4.0; NCI-60 screen data; cited from earlier work
A549/ATCC = settings: Non-SmallCellLung A549/ATCC; highest log conc -4.0; NCI-60 screen data; cited from earlier work
SW-620 = settings: Colon SW-620; highest log conc -4.0; NCI-60 screen data; cited from earlier work
TK-10 = settings: Renal TK-10; highest log conc -4.0; NCI-60 screen data; cited from earlier work
UACC-62 = settings: Melanoma UACC-62; highest log conc -4.0; NCI-60 screen data; cited from earlier work
HCT-15 = settings: Colon HCT-15; highest log conc -4.0; NCI-60 screen data; cited from earlier work
CCRF-CEM = settings: Leukemia CCRF-CEM; highest log conc -4.0; NCI-60 screen data; cited from earlier work
MDA-MB-435 = settings: Melanoma MDA-MB-435; highest log conc -4.0; NCI-60 screen data; cited from earlier work
SK-MEL-28 = settings: Melanoma SK-MEL-28; highest log conc -4.0; NCI-60 screen data; cited from earlier work
K-562 = settings: Leukemia K-562; highest log conc -4.0; NCI-60 screen data; cited from earlier work
OVCAR-8 = settings: Ovarian OVCAR-8; highest log conc -4.0; NCI-60 screen data; cited from earlier work
HCT-116 = settings: Colon HCT-116; highest log conc -4.0; NCI-60 screen data; cited from earlier work
SF-268 = settings: CNS SF-268; highest log conc -4.0; NCI-60 screen data; cited from earlier work
SK-MEL-5 = settings: Melanoma SK-MEL-5; highest log conc -4.0; NCI-60 screen data; cited from earlier work
SN12C = settings: Renal SN12C; highest log conc -4.0; NCI-60 screen data; cited from earlier work
OVCAR-5 = settings: Ovarian OVCAR-5; highest log conc -4.0; NCI-60 screen data; cited from earlier work

| Compound | GI50 AVGDATA (COLO205) | GI50 AVGDATA (UACC-257) | GI50 AVGDATA (M14) | GI50 AVGDATA (T-47D) | GI50 AVGDATA (SNB-75) | GI50 AVGDATA (EKVX) | GI50 AVGDATA (A549/ATCC) | GI50 AVGDATA (SW-620) | GI50 AVGDATA (TK-10) | GI50 AVGDATA (UACC-62) | GI50 AVGDATA (HCT-15) | GI50 AVGDATA (CCRF-CEM) | GI50 AVGDATA (MDA-MB-435) | GI50 AVGDATA (SK-MEL-28) | GI50 AVGDATA (K-562) | GI50 AVGDATA (OVCAR-8) | GI50 AVGDATA (HCT-116) | GI50 AVGDATA (SF-268) | GI50 AVGDATA (SK-MEL-5) | GI50 AVGDATA (SN12C) | further results |
| --- | --- | --- | --- | --- | --- | --- | --- | --- | --- | --- | --- | --- | --- | --- | --- | --- | --- | --- | --- | --- | --- |
| COC(=O)N1c2ccc3c(nc(Cc4ccccc4)n3[C@H]3CCC[C@H](C(=O)O)C3)c2CC[C@@H]1C [FT-6876] | -5.31 | -4.83 | -5.23 | -5.5 | -6.37 | -4.75 | -4.56 | -4.33 | -5.24 | -5.68 | -4.79 | -5.18 | -5.07 | -4.88 | -5.3 | -4.55 | -4.75 | -4.56 | -4.99 | -4.76 | GI50 AVGDATA (OVCAR-5): -4.51 |
| Cc1sc2c(c1C)C(c1ccc(Cl)cc1)=N[C@@H](CC(=O)OC(C)(C)C)c1nnc(C)n1-2 [JQ-1] | -6.84 | -6.83 | -6.11 | -6.67 | -7.6 | -5.93 | -6.5 | -5.39 | -7.23 | -7.16 | -6.8 | -6.11 | -6.87 | -6.4 | -7.24 | -6.21 | -6.51 | -5.33 | -6.47 | -5.71 | GI50 AVGDATA (OVCAR-5): -4.98 |
| CO[C@H]1CC[C@H](n2c([C@@H]3CCCC(=O)N3c3ccc(F)c(F)c3)nc3cc(-c4c(C)noc4C)ccc32)CC1 [inobrodib] | -5.67 | -5.59 | -5.73 | -5.69 | -7.96 | -5.4 | -4.93 | -4.72 | -5.61 | -5.6 | -5.33 | -5.33 | -5.1 | -4.93 | -5.55 | -4.99 | -5 | -4.83 | -5.24 | -4.99 | GI50 AVGDATA (OVCAR-5): -4.77 |
